Assay results as given in the supplement of paper PMC10307832.

Assays:
Assay in all cases: relative viability (nuclei count vs DMSO), 5 days (fraction); higher = more cells survive
[1] = compound: COC1=CC=C(C=C1)CN2C=CC3=C2C=C(C=C3)C(=O)NO + Nc1ncn([C@H]2C[C@H](O)[C@@H](CO)O2)c(=O)n1 [Decitabine] (partner 2 µM)
Outline: (§1)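 Lung cancer cell lines in 1536-well plates were dosed by pin tool the day after seeding, either with one drug alone or with a fixed anchor-drug dose plus five library-drug doses (not always all listed) in √10 steps. After 5 days, cells were fixed and their nuclei stained in one step (final 0.05% Triton X-100, 1% formaldehyde, 1 ug/ml Hoechst), then counted on 4× images. Relative viability is the nuclei count in treated wells divided by that in vehicle wells. Values are medians of duplicate plates.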

Veliparib + Alpelisib = compound: C[C@]1(c2nc3c(C(N)=O)cccc3[nH]2)CCCN1 [Veliparib] + Cc1nc(NC(=O)N2CCC[C@H]2C(N)=O)sc1-c1ccnc(C(C)(C)C(F)(F)F)c1 [Alpelisib] (partner 2 µM)
Outline: as §1

[2] = compound: COC1=CC=C(C=C1)CN2C=CC3=C2C=C(C=C3)C(=O)NO + O=C(CCCCCCC(=O)Nc1ccccc1)NO [Vorinostat] (partner 1 µM)
Outline: as §1

Veliparib + Lapatinib = compound: C[C@]1(c2nc3c(C(N)=O)cccc3[nH]2)CCCN1 [Veliparib] + CS(=O)(=O)CCNCc1ccc(-c2ccc3ncnc(Nc4ccc(OCc5cccc(F)c5)c(Cl)c4)c3c2)o1 [Lapatinib] (partner 2 µM)
Outline: as §1

LU99A gave a relative viability ([1]; first compound 0.253 µM) of 0.959, a relative viability ([1]; first compound 0.8 µM) of 0.952 and a relative viability ([1]; first compound 2.53 µM) of 0.843. For the same cell line, the relative viability ([1]; first compound 8 µM) was 0.911, the relative viability (Veliparib + Alpelisib; first compound 0.02 µM) was 0.504 and the relative viability (Veliparib + Alpelisib; first compound 0.06325 µM) was 0.459. For the same cell line, the relative viability (Veliparib + Alpelisib; first compound 0.2 µM) was 0.544, the relative viability (Veliparib + Alpelisib; first compound 0.6325 µM) was 0.509 and the relative viability (Veliparib + Alpelisib; first compound 2 µM) was 0.569. The relative viability ([2]; first compound 0.253 µM) was 0.504, the relative viability ([2]; first compound 0.8 µM) was 0.581 and the relative viability ([2]; first compound 2.53 µM) was 0.418. The relative viability ([2]; first compound 8 µM) was 0.352, the relative viability (Veliparib + Lapatinib; first compound 0.02 µM) was 1.03 and the relative viability (Veliparib + Lapatinib; first compound 0.06325 µM) was 0.926. For the same cell line, the relative viability (Veliparib + Lapatinib; first compound 0.2 µM) was 0.585, the relative viability (Veliparib + Lapatinib; first compound 0.6325 µM) was 0.859 and the relative viability (Veliparib + Lapatinib; first compound 2 µM) was 0.87.

LXF-289 showed a relative viability ([1]; first compound 0.253 µM) of 0.413, a relative viability ([1]; first compound 0.8 µM) of 0.391 and a relative viability ([1]; first compound 2.53 µM) of 0.386. It also gave a relative viability ([1]; first compound 8 µM) of 0.329, a relative viability (Veliparib + Alpelisib; first compound 0.02 µM) of 1.02 and a relative viability (Veliparib + Alpelisib; first compound 0.06325 µM) of 1.02. It also gave a relative viability (Veliparib + Alpelisib; first compound 0.2 µM) of 0.997, a relative viability (Veliparib + Alpelisib; first compound 0.6325 µM) of 1.01 and a relative viability (Veliparib + Alpelisib; first compound 2 µM) of 1.06. It also gave a relative viability ([2]; first compound 0.253 µM) of 0.815, a relative viability ([2]; first compound 0.8 µM) of 0.813 and a relative viability ([2]; first compound 2.53 µM) of 0.797. It also gave a relative viability ([2]; first compound 8 µM) of 0.668, a relative viability (Veliparib + Lapatinib; first compound 0.02 µM) of 0.903 and a relative viability (Veliparib + Lapatinib; first compound 0.06325 µM) of 0.878. The relative viability (Veliparib + Lapatinib; first compound 0.2 µM) was 0.897, the relative viability (Veliparib + Lapatinib; first compound 0.6325 µM) was 0.904 and the relative viability (Veliparib + Lapatinib; first compound 2 µM) was 0.928.

NCI-H441 showed a relative viability ([1]; first compound 0.08 µM) of 0.258, a relative viability ([1]; first compound 0.253 µM) of 0.239 and a relative viability ([1]; first compound 0.8 µM) of 0.258. The relative viability ([1]; first compound 2.53 µM) was 0.237, the relative viability ([1]; first compound 8 µM) was 0.276 and the relative viability (Veliparib + Alpelisib; first compound 0.02 µM) was 0.735. For the same cell line, the relative viability (Veliparib + Alpelisib; first compound 0.06325 µM) was 0.886, the relative viability (Veliparib + Alpelisib; first compound 0.2 µM) was 0.716 and the relative viability (Veliparib + Alpelisib; first compound 0.6325 µM) was 0.737. For the same cell line, the relative viability (Veliparib + Alpelisib; first compound 2 µM) was 0.671, the relative viability ([2]; first compound 0.08 µM) was 0.74 and the relative viability ([2]; first compound 0.253 µM) was 0.888. It also gave a relative viability ([2]; first compound 0.8 µM) of 0.902, a relative viability ([2]; first compound 2.53 µM) of 0.844 and a relative viability ([2]; first compound 8 µM) of 0.637.

NCI-H522 showed a relative viability ([1]; first compound 0.253 µM) of 0.649, a relative viability ([1]; first compound 0.8 µM) of 0.606 and a relative viability ([1]; first compound 2.53 µM) of 0.63. For the same cell line, the relative viability ([1]; first compound 8 µM) was 0.765, the relative viability ([2]; first compound 0.253 µM) was 0.982 and the relative viability ([2]; first compound 0.8 µM) was 1.03. The relative viability ([2]; first compound 2.53 µM) was 0.909 and the relative viability ([2]; first compound 8 µM) was 0.845.

In the case of NCI-H1299, the relative viability (Veliparib + Alpelisib; first compound 0.02 µM) is reported as 1.04, the relative viability (Veliparib + Alpelisib; first compound 0.06325 µM) is reported as 0.992 and the relative viability (Veliparib + Alpelisib; first compound 0.2 µM) is reported as 1.03. It also gave a relative viability (Veliparib + Alpelisib; first compound 0.6325 µM) of 0.985, a relative viability (Veliparib + Alpelisib; first compound 2 µM) of 1.05 and a relative viability (Veliparib + Lapatinib; first compound 0.02 µM) of 0.972. It also gave a relative viability (Veliparib + Lapatinib; first compound 0.06325 µM) of 0.944, a relative viability (Veliparib + Lapatinib; first compound 0.2 µM) of 0.951 and a relative viability (Veliparib + Lapatinib; first compound 0.6325 µM) of 0.956. For the same cell line, the relative viability (Veliparib + Lapatinib; first compound 2 µM) was 0.978.

In the case of NCI-H1563, the relative viability (Veliparib + Alpelisib; first compound 0.02 µM) is reported as 0.981, the relative viability (Veliparib + Alpelisib; first compound 0.06325 µM) is reported as 0.965 and the relative viability (Veliparib + Alpelisib; first compound 0.2 µM) is reported as 1. The relative viability (Veliparib + Alpelisib; first compound 0.6325 µM) was 0.826, the relative viability (Veliparib + Alpelisib; first compound 2 µM) was 1.04 and the relative viability (Veliparib + Lapatinib; first compound 0.02 µM) was 0.695. It also gave a relative viability (Veliparib + Lapatinib; first compound 0.06325 µM) of 1.02, a relative viability (Veliparib + Lapatinib; first compound 0.2 µM) of 0.976 and a relative viability (Veliparib + Lapatinib; first compound 0.6325 µM) of 0.978. It also gave a relative viability (Veliparib + Lapatinib; first compound 2 µM) of 0.987.

With NCI-H1648 the relative viability ([1]; first compound 0.08 µM) was 0.435, the relative viability ([1]; first compound 0.253 µM) was 0.553 and the relative viability ([1]; first compound 0.8 µM) was 0.554. It also gave a relative viability ([1]; first compound 2.53 µM) of 0.539, a relative viability ([1]; first compound 8 µM) of 0.46 and a relative viability ([2]; first compound 0.08 µM) of 0.373. It also gave a relative viability ([2]; first compound 0.253 µM) of 0.515, a relative viability ([2]; first compound 0.8 µM) of 0.337 and a relative viability ([2]; first compound 2.53 µM) of 0.528. It also gave a relative viability ([2]; first compound 8 µM) of 0.406.

Cell Line NCI-H1650 has a relative viability ([1]; first compound 0.08 µM) of 0.358, a relative viability ([1]; first compound 0.253 µM) of 0.407 and a relative viability ([1]; first compound 0.8 µM) of 0.423. For the same cell line, the relative viability ([1]; first compound 2.53 µM) was 0.392, the relative viability ([1]; first compound 8 µM) was 0.328 and the relative viability ([2]; first compound 0.08 µM) was 0.354. It also gave a relative viability ([2]; first compound 0.253 µM) of 0.557, a relative viability ([2]; first compound 0.8 µM) of 0.595 and a relative viability ([2]; first compound 2.53 µM) of 0.684. For the same cell line, the relative viability ([2]; first compound 8 µM) was 0.532, the relative viability (Veliparib + Lapatinib; first compound 0.06325 µM) was 0.702 and the relative viability (Veliparib + Lapatinib; first compound 0.2 µM) was 0.855. It also gave a relative viability (Veliparib + Lapatinib; first compound 0.6325 µM) of 0.739 and a relative viability (Veliparib + Lapatinib; first compound 2 µM) of 0.718.

With NCI-H1703 the relative viability (Veliparib + Alpelisib; first compound 0.02 µM) was 0.245, the relative viability (Veliparib + Alpelisib; first compound 0.06325 µM) was 0.303 and the relative viability (Veliparib + Alpelisib; first compound 0.2 µM) was 0.316. The relative viability (Veliparib + Alpelisib; first compound 0.6325 µM) was 0.35, the relative viability (Veliparib + Alpelisib; first compound 2 µM) was 0.368 and the relative viability (Veliparib + Lapatinib; first compound 0.02 µM) was 1.11. It also gave a relative viability (Veliparib + Lapatinib; first compound 0.06325 µM) of 0.922, a relative viability (Veliparib + Lapatinib; first compound 0.2 µM) of 1.35 and a relative viability (Veliparib + Lapatinib; first compound 0.6325 µM) of 0.982. The relative viability (Veliparib + Lapatinib; first compound 2 µM) was 1.2.

Work on NCI-H1792 yielded a relative viability ([1]; first compound 0.08 µM) of 0.523, a relative viability ([1]; first compound 0.253 µM) of 0.619 and a relative viability ([1]; first compound 0.8 µM) of 0.479. For the same cell line, the relative viability ([1]; first compound 2.53 µM) was 0.469, the relative viability ([1]; first compound 8 µM) was 0.458 and the relative viability (Veliparib + Alpelisib; first compound 0.02 µM) was 0.678. It also gave a relative viability (Veliparib + Alpelisib; first compound 0.06325 µM) of 0.592, a relative viability (Veliparib + Alpelisib; first compound 0.2 µM) of 0.799 and a relative viability (Veliparib + Alpelisib; first compound 0.6325 µM) of 0.65. It also gave a relative viability (Veliparib + Alpelisib; first compound 2 µM) of 0.645, a relative viability (Veliparib + Lapatinib; first compound 0.02 µM) of 0.922 and a relative viability (Veliparib + Lapatinib; first compound 0.06325 µM) of 0.719. It also gave a relative viability (Veliparib + Lapatinib; first compound 0.2 µM) of 0.962, a relative viability (Veliparib + Lapatinib; first compound 0.6325 µM) of 0.983 and a relative viability (Veliparib + Lapatinib; first compound 2 µM) of 0.832.

Cell Line NCI-H2228 has a relative viability (Veliparib + Alpelisib; first compound 0.02 µM) of 0.818, a relative viability (Veliparib + Alpelisib; first compound 0.06325 µM) of 0.688 and a relative viability (Veliparib + Alpelisib; first compound 0.2 µM) of 0.832. It also gave a relative viability (Veliparib + Alpelisib; first compound 0.6325 µM) of 0.623, a relative viability (Veliparib + Alpelisib; first compound 2 µM) of 0.678 and a relative viability ([2]; first compound 0.08 µM) of 0.496. The relative viability ([2]; first compound 0.253 µM) was 0.869, the relative viability ([2]; first compound 0.8 µM) was 0.639 and the relative viability ([2]; first compound 2.53 µM) was 0.431. The relative viability ([2]; first compound 8 µM) was 0.826, the relative viability (Veliparib + Lapatinib; first compound 0.02 µM) was 0.968 and the relative viability (Veliparib + Lapatinib; first compound 0.06325 µM) was 0.889. It also gave a relative viability (Veliparib + Lapatinib; first compound 0.2 µM) of 1.11, a relative viability (Veliparib + Lapatinib; first compound 0.6325 µM) of 0.96 and a relative viability (Veliparib + Lapatinib; first compound 2 µM) of 1.06.

In the case of NCI-H2342, the relative viability ([1]; first compound 0.08 µM) is reported as 0.76, the relative viability ([1]; first compound 0.253 µM) is reported as 0.733 and the relative viability ([1]; first compound 0.8 µM) is reported as 0.707. It also gave a relative viability ([1]; first compound 2.53 µM) of 0.799, a relative viability ([1]; first compound 8 µM) of 0.769 and a relative viability ([2]; first compound 0.08 µM) of 0.591. The relative viability ([2]; first compound 0.253 µM) was 0.738, the relative viability ([2]; first compound 0.8 µM) was 0.694 and the relative viability ([2]; first compound 2.53 µM) was 0.701. The relative viability ([2]; first compound 8 µM) was 0.788.

For SW 900, the relative viability ([1]; first compound 0.08 µM) was 0.441, the relative viability ([1]; first compound 0.253 µM) was 0.403 and the relative viability ([1]; first compound 0.8 µM) was 0.446. For the same cell line, the relative viability ([1]; first compound 2.53 µM) was 0.423, the relative viability ([1]; first compound 8 µM) was 0.411 and the relative viability ([2]; first compound 0.08 µM) was 0.477. It also gave a relative viability ([2]; first compound 0.253 µM) of 0.334, a relative viability ([2]; first compound 0.8 µM) of 0.441 and a relative viability ([2]; first compound 2.53 µM) of 0.733. For the same cell line, the relative viability ([2]; first compound 8 µM) was 0.358.
